The values that follow come from patent US11419859B2, “Combination therapy for treating malignancies” (Servier Pharmaceuticals LLC, priority 2015, dated 2022).

The series is described as follows: blood bilirubin in subjects with a UGT1A1 mutation receiving COMPOUND 1. The series is classed as in vivo, human. The source says:
All toxicity≥Grade 3 not due to underlying AML or complications of the disease or myelosuppressive treatment, with the exception of ≥Grade 3 blood bilirubin increases in subjects with a UGT1A1 mutation receiving COMPOUND 1.

In the case of `CC(C)(O)CNc1nc(Nc2ccnc(C(F)(F)F)c2)nc(-c2cccc(C(F)(F)F)n2)n1` [COMPOUND 1, 2-methyl-[(4-[6-(trifluoromethyl)pyridin-2-yl]-6-{[2-(trifluoromethyl)pyridin-4-yl]amino}-1,3,5-triazin-2-yl)amino]propan-2-ol], the blood bilirubin entry is reported as “isolated blood bilirubin increases have been seen”.
